Where two headings read alike, the source gives them in different places.
Experiments:
3T3-L1 cells = experiment: Induction of adipocyte differentiation (amount of triglyceride biosynthesis); type: cell-based; details: Mus musculus
Procedure, shortened: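 Differentiation scored as X=(S−N)/(P−N), ranked +++, ++, +, +/−, where S, N and P are triglyceride with compound, DMSO and insulin; triglyceride was extracted with hexane:isopropanol (3:2) and assayed twice. Compound was added after 7 days' growth, first with 0.25 μM dexamethasone (45 h), then for 7 days.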

[1] = molecular target: T1, fusion protein of an yeast GAL4 DNA-binding domain and a human PPARγ ligand-binding site (Homo sapiens, UniProt P37231); experiment: PPARγ activation reporter assay in CV-1 cells; type: cell-based; details: test compound 10 μM, pFA-CMV (PPARγ), 24 hours
T1 construct: expressed in transfected cells; host or cells: CV-1 cells
T1 sequence (P37231 204-505): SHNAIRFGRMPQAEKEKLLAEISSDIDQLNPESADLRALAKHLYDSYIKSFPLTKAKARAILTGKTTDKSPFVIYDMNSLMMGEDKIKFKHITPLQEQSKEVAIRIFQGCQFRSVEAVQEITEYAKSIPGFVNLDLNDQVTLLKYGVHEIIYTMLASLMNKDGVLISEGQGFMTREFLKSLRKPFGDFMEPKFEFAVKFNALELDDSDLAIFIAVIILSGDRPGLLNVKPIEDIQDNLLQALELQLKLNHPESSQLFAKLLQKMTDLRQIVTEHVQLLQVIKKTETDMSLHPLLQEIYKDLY
Experimental: The activation ability for PPARγ was determined by a reporter assay using a fusion protein of an yeast GAL4 DNA-binding domain and a human PPARγ ligand-binding site.
A plasmid (pGAL4/GL3-Promoter) was prepared by repeating five times insertion of a binding site (UASg) of GAL4 into a multicloning site of a pGL3-Promoter vector (Promega). In addition, a ligand-binding site (amino acid sequence 204 to 505) of the PPARγ gene was cloned from a human liver cDNA library (manufactured by TAKARA BIO INC.) by a polymerase chain reaction, and the ligand-binding site was inserted into a multicloning site of a pFA-CMV plasmid vector ([…]) to give pFA-CMV (PPARγ).
Escherichia coli JM-109 strain was transformed with each of the two kinds of the plasmids obtained by the above-mentioned procedures, and pFA-CMV and pRL-TK (Promega) according to a conventional method. Each of the Escherichia coli cells was cultured with shaking at 37° C. for 18 hours in an LB medium containing 100 μg/mL ampicillin. Thereafter, the plasmids of each were purified according to the procedure manual of QIAfilter Plasmid midi Kit (QIAGEN).
CV-1 cells were seeded in a 24-well plate so as to have a density of 4×10^4 cells per well. Thereafter, the cells were cultured in a Dulbecco's modified Eagle's medium (manufactured by Sigma, D5796) containing 10% fetal bovine serine (manufactured by Bio Whittaker) for 24 hours under the conditions of 37° C. and 5% CO2. Thereafter, in accordance with the procedure manual of LipofectAmine 2000 (Invitrogen), the gene transfer was carried out into the CV-1 cells with 200 ng of pFA-CMV (PPARγ) or pFA-CMV, 400 ng of pGAL4/GL3-promoter, and 200 ng of pRL-TK per well, and thereafter the cells were cultured for 24 hours under the conditions of 37° C. and 5% CO2. Thereafter, the medium was exchanged with a Dulbecco's modified Eagle's medium to which a test compound dissolved in dimethyl sulfoxide was previously added so as to have a final concentration of 10 μM. Thereafter, the cells were cultured for additional 24 hours. In addition, there were set a group with addition of dimethyl sulfoxide in place of a test compound as a negative control, and a group with addition of troglytazone (manufactured by Calbiochem) so as to have a final concentration of 3 μM as a positive control. The cells were washed with a phosphate buffered saline, and 5× PassiveLysisBuffer (Promega) which was previously diluted in 5-folds with distilled water was added thereto in an amount of 100 μL per well. The mixture was shaken at room temperature for 15 minutes to lyse cells. Twenty microliters of this lysed solution was applied in accordance with the procedure manual of Dual Luciferase Assay System (Promega), and a fluorescent luciferase emission intensity and a Renilla mullerei luciferase emission intensity were measured using Mithras-LB940 (BERTHOLD TECHNOLOGIES GmbH). The enhancing action for transcriptional activation of each test compound was shown as a relative value obtained by calculating a ratio of the fluorescent luciferase emission intensity to the Renilla mullerei luciferase emission intensity, wherein the value of the group with addition of the negative control is defined as 1.

[2] = 3T3-L1, X=(S−N)/(P−N) of amount of triglyceride, P=insulin positive control, read-out: Action for Induction of Differentiation
[3] = 3T3-L1, 3 μM, X=(S−N)/(P−N) of amount of triglyceride, P=insulin positive control, read-out: Action for Induction of Differentiation
[4] = 3T3-L1, 10 μM, X=(S−N)/(P−N) of amount of triglyceride, P=insulin positive control, read-out: Action for Induction of Differentiation
[5] = 3T3-L1, read-out: Action for Induction of Differentiation

| SMILES | activation at 1.3 µM (3T3-L1 cells; 3T3-L1, 1.3 μM, X=(S−N)/(P−N) of amount of triglyceride, P=insulin positive control, read-out: Action for Induction of Differentiation) [%] | activation at 4 µM (3T3-L1 cells; 3T3-L1, 4 μM, X=(S−N)/(P−N) of amount of triglyceride, P=insulin positive control, read-out: Action for Induction of Differentiation) [%] | activation at 13 µM (3T3-L1 cells; 3T3-L1, 13 μM, X=(S−N)/(P−N) of amount of triglyceride, P=insulin positive control, read-out: Action for Induction of Differentiation) [%] | enhancing action for transcriptional activation (PPARγ) [1] | activation at 1 µM (3T3-L1 cells; [2]) [%] | activation at 3 µM (3T3-L1 cells; [3]) [%] | activation at 10 µM (3T3-L1 cells; [4]) [%] | activation at 3 µM (3T3-L1 cells; [5]) [%] | activation at 10 µM (3T3-L1 cells; [5]) [%] |
| --- | --- | --- | --- | --- | --- | --- | --- | --- | --- |
| COc1ccc(C(=O)/C=C/c2ccc(O)cc2)c2c1CC(O)C(C)(C)O2 (stereo not drawn) [Xanthoangelol H] | 30 to 60 | 60 to 100 | > 100 | no enhancing action for transcriptional activation was found |  |  |  |  |  |
| COc1ccc(C(=O)/C=C/c2ccc(O)cc2)c(O)c1C/C=C(\C)CCC=C(C)C [Xanthoangelol F, 4,2′-Dihydroxy-3′-geranyl-4′-methoxychalcone] |  |  |  | no enhancing action for transcriptional activation was found | 60 to 100 | > 100 | > 100 |  |  |
| COc1ccc(C(=O)/C=C/c2ccc(O)cc2)c(O)c1CC=C(C)C [4-Hydroxyderricin, 4,2′-Dihydroxy-3′-prenyl-4′-methoxychalcone] |  |  |  | no enhancing action for transcriptional activation was found |  |  |  | 60 to 100 | > 100 |
| CC(C)=CCC/C(C)=C/Cc1c(O)ccc(C(=O)/C=C/c2ccc(O)cc2)c1O [Xanthoangelol, 4,2′,4′-Trihydroxy-3′-geranylchalcone] |  |  |  | no enhancing action for transcriptional activation was found | 15 to 30 | 60 to 100 | > 100 |  |  |

From patent US20070092551A1, “Therapeutic agent” (TAKARA BIO INC., priority 2003, published 2007)
